{"source": "patent US20240271096A1", "about": "“EFFICIENT DIFFERENTIATION OF SECOND HEART FIELD CARDIAC PROGENITOR CELLS AND RIGHT VENTRICLE CARDIOMYOCYTES FROM HUMAN PLURIPOTENT STEM CELLS” (Wisconsin Alumni Research Foundation, priority 2023, published 2024)", "tested_on": "reporterless hiPSC line", "assay": "Immunostaining of marker proteins in hiPSC-derived cardiac progenitor cells and cardiomyocytes", "type": "cell-based, human", "procedure": "For LV-cardiomyocyte differentiation, cardiac differentiation was performed according to the protocol published by (Lian et al., 2012, Proc Natl Acad Sci USA 109:[…]-57). Cells were dissociated with StemPro Accutase Cell Dissociation Reagent at 37° C. for 5 minutes. HESCs were seeded on Matrigel-coated 24-well plates (Corning) in StemFlex Medium supplemented with 10 μmol/[…] were seeded on iMatrix-511-coated 12-well plates (Corning) in StemFit A[…] supplemented with 10 μmol/[…] at seeding densities of 1×10^5 cells/cm^2 for hESCs and 1.25-2.5×10^4 cells/cm^2 for hiPSCs. Cells were cultured for 4 days until the start of differentiation (day 0). On day 0, the medium was changed to RPMI 1640 Medium (Thermo Fisher Scientific) supplemented with B-27 Supplement minus insulin (Thermo Fisher Scientific) (RPMI/B27-insulin) or B-27 Supplement with insulin (Thermo Fisher Scientific), and 12 μmol/L CHIR 99021 (SelleckChem, Houston, TX, United States), and the cells incubated in this medium for 24 h (day 1). On day 1, the medium was changed to RPMI/B27-insulin. […] On day 3, the medium was changed to RPMI/B27-insulin supplemented with 5 μmol/L IWP2 (SelleckChem) and on day 5, the medium was changed to 1 ml RPMI/B27-insulin. From day 7, the cells were cultured with RPMI/B27-insulin, and the cells were fed every other day. On day 12, the cells were washed with PBS (Thermo Fisher Scientific) and cultured with DMEM or RPMI, no glucose supplemented with 8 mmol/L L-(+)-Lactic acid (Merck) (Tohyama et al., 2013 Cell Stem Cell, 12:127-37). The medium was changed every other day until day 17. After day 17, the cells were cultured with RPMI/B27 and fed every 2 to 3 days. For long-term culture, the cells were dissociated with TrypLETM Select Enzyme (10×) (Thermo Fisher Scientific) at 37° C. for 15-20 minutes and seeded on Matrigel- or iMatrix-511-coated plates. […] For FIG. 15A and FIG. 15B, dorsomorphin (DM) or 3 μg/L insulin were added on day 0 (for 24 hours), 1, 3, or 5 (for 48 hours). Cells were plated on iMatrix-511-coated plates and fixed in 4% paraformaldehyde (Nacalai, Kyoto, Japan) for 15 minutes. Cells were permeabilized with 0.1% Triton X-100 (Sigma-Aldrich, St. Louis, MO, United States)/PBS and blocked with 10% goat serum (Sigma-Aldrich). Primary and secondary antibodies were diluted in 0.1% Triton X-100/PBS with 5% goat serum and stained with Hoechst 33342 (Thermo Fisher Scientific) at 1 μg/mL, mouse anti-cardiac troponin T monoclonal IgG1 (GTX28295, GeneTex, Irvine, CA, United States) diluted at 1:16000, mouse anti-α-actinin monoclonal IgG1 (A7811, Sigma-Aldrich) diluted at 1:1000, rabbit anti-MLC2v monoclonal IgG (ab92721, Abcam, Cambridge, United Kingdom) diluted at 1:500, rabbit anti-CXCR4 monoclonal IgG (ab181020, Abcam) diluted at 1:2000, rabbit anti-NKX2-5 monoclonal IgG (Cat #. […], Cell Signaling Technology, Danvers, MA, United States) diluted at 1:2500, mouse anti-Nav1.5 (Car #. ASC-013, Alomone Labs) diluted at 1:1000, rabbit anti-connexin 43 (Cat #. 83649, Cell Signaling Technology) diluted at 1:1000, and mouse anti-TBX5 monoclonal IgG2a (Cat #. sc-515536, Santa Cruz Biotechnology, Dallas, TX, United States) diluted at 1:500. These cells were then incubated with a secondary antibody, goat anti-mouse or rabbit polyclonal IgG conjugated with iFluor 488 or 555 (AAT Bioquest, Sunnyvale, CA, United States) diluted at 1:1000, for 1 hour at room temperature. The cells were then observed with IX71 (Olympus, Tokyo, Japan) or EVOS FL Auto (Thermo Fisher Scientific) and images processed with ImageJ ([…] al., 2012, Nat Methods, 9:671-5)."}
{"substance": "insulin", "values": [{"measurement": "RV cardiomyocytes differentiation", "setting": "added on day 1 for 48 hours", "value": "induced optimal RV cardiomyocytes differentiation"}, {"measurement": "CXCR4 immunostaining", "setting": "insulin day 0 to day 1, day 6", "value": "upregulation"}, {"measurement": "TBX5 expression (immunostaining)", "setting": "insulin day 0 to day 1, day 10", "value": "greatly reduced"}, {"measurement": "expression of pan-cardiomyocyte markers NKX2-5 and cardiac Troponin T (cTnT)", "setting": "insulin day 0 to day 1, day 10", "value": "expressed"}, {"measurement": "immunostaining of TBX5", "setting": "insulin on day 1 for 48 hours (D1-3)", "value": "low"}]}
